Series [1] is described as follows: Pharmacokinetics in male SD rats (cassette dosing, IV and PO), plasma level by LC/MS/MS. Conditions: male SD rat; for bioavailability: dose adjusted PO AUC (5 mg/kg) to IV AUC (1 mg/kg), read-out: F % (oral bioavailability). Format: in vivo. Here is the method:
Male SD rats were fasted overnight. Compounds of the invention were dissolved in dimethyl acetamide at 10 times the final concentration, then Solutol HS 15 (BASF) was added to a final concentration of 10%. Finally, 80% saline was added and vortexed to achieve a clear solution. For the IV dosing three animals were injected via the foot dorsal vein with 1 mg/kg compound. For the PO dosing 5 mg/kg of compound was delivered by oral gavage. Blood was collected via the tail vein into K2EDTA tubes at 5 minutes, 15 minutes, 30 minutes, 1 hour, 2 hours, 4 hours, 8 hours and 24 hours after dosing. The blood was centrifuged at 2000 g for 5 minutes at 4° C. to obtain plasma. The plasma was extracted with acetonitrile and the level of compound was analyzed by LC/MS/MS. The level of compound in plasma was calculated from a standard curve in rat plasma. The IV clearance (L/h/kg) and area under the curve (h*ng/mL) were calculated using WinNonLin software. The dose adjusted area under the curve for the IV and oral dosing were used to calculate the oral bioavailability.
Pharmacokinetic properties were assessed in a rat cassette dosing experiment. The IV clearance (IV Clr.) is in units of L/hr/kg. The oral maximum plasma concentration (PO Cmax) is in units of ng/ml. The oral plasma half-life (PO T½) is in units of hours. The oral area under the curve (PO AUC) is in units of hours*ng/ml. The fraction absorbed by the oral route (F %) is a percentage of the oral area under the curve to the IV area under the curve, dose adjusted.

Another series addresses T1, HDAC1 (Homo sapiens, UniProt Q13547).
T1 construct: purchased BPS Biosciences
The series can be described thus: HDAC enzyme assay, HDAC1 (fluorescence, tripeptide substrate/trypsin). Format: biochemical. The settings on record: 3.3 ng/ml enzyme, 16 μM substrate, 10 min preincubation. How it is done:
(§1) Compounds for testing were diluted in […] to 50 fold the final concentration and a ten-point three-fold dilution series was made. The compounds were diluted in assay buffer (50 mM HEPES, pH 7.4, 100 mM KCl, 0.001% Tween-20, 0.05% BSA, 20 μM TCEP) to 6-fold their final concentration. The HDAC enzymes (purchased from BPS Biosciences) were diluted to 1.5-fold their final concentration in assay buffer. The tripeptide substrate and trypsin at 0.05 μM final concentration were diluted in assay buffer at 6-fold their final concentration. The final enzyme concentrations used in these assays were 3.3 ng/ml (HDAC1), 0.2 ng/ml (HDAC2) and 0.08 ng/ml (HDAC3). The final substrate concentrations used were 16 μM (HDAC1), 10 μM (HDAC2) and 17 μM (HDAC3).
(§2) Five μl of compounds and 20 μl of enzyme were added to wells of a black, opaque 384 well plate in duplicate. Enzyme and compound were incubated together at room temperature for 10 minutes. Five μl of substrate was added to each well, the plate was shaken for 60 seconds and placed into a Victor 2 microtiter plate reader. The development of fluorescence was monitored for 60 min and the linear rate of the reaction was calculated. The IC50 was determined using Graph Pad Prism by a four parameter curve fit.

The target of another series is T2, HDAC3 (Homo sapiens, UniProt O15379).
T2 construct: purchased BPS Biosciences
T2 sequence (O15379 whole entry): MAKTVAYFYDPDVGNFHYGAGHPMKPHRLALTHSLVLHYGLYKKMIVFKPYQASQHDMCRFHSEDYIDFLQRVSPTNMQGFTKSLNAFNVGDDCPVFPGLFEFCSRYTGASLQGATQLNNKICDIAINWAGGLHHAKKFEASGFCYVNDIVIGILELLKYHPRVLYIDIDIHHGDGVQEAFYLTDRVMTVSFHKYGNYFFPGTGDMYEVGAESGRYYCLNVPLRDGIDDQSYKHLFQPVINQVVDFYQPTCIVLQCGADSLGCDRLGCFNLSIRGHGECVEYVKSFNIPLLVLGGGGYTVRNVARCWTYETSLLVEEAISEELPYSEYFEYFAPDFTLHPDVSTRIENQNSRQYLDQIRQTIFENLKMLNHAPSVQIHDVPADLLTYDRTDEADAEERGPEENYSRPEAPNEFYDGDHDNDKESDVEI
T2 sequence (Q9Y618 395-489 partner limits assumed): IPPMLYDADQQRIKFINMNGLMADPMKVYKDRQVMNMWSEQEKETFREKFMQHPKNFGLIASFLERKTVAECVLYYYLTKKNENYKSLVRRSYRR
The series can be described thus: HDAC enzyme assay, HDAC3 (fluorescence, tripeptide substrate/trypsin). Format: biochemical. The settings on record: 0.08 ng/ml enzyme, 17 μM substrate, 10 min preincubation. How it is done: as §1, §2

The target in another series is T3, HDAC2 (Homo sapiens, UniProt Q92769).
T3 construct: purchased BPS Biosciences
T3 sequence (Q92769 whole entry): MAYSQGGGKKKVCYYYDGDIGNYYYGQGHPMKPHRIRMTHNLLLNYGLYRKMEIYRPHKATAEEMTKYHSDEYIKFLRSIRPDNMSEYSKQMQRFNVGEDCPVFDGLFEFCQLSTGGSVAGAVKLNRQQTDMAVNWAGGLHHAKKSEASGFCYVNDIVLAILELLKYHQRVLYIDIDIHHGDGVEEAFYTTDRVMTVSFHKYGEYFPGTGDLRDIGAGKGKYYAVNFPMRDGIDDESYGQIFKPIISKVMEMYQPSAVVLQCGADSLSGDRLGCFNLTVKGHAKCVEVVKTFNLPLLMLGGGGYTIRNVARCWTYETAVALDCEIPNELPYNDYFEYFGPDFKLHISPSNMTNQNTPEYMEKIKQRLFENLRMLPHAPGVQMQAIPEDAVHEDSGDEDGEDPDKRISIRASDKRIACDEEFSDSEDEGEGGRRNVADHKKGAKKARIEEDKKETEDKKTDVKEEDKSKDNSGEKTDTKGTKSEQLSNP
The series is described as follows: HDAC enzyme assay, HDAC2 (fluorescence, tripeptide substrate/trypsin). It counts as biochemical. The settings on record: 0.2 ng/ml enzyme, 10 μM substrate, 10 min preincubation. Here is the method: as §1, §2

Setting [2] is: PO 5 mg/kg oral gavage, read-out: PO AUC.
Where [3] appears, read: PO 5 mg/kg oral gavage, read-out: PO t1/2.

Read-outs that look alike come from different tables or passages of the source.

Consider five compounds from patent publication US11858919B2, “HDAC1,2 inhibitors” (REGENACY PHARMACEUTICALS, LLC, priority 2018, dated 2024).

T1 sequence (Q13547 whole entry): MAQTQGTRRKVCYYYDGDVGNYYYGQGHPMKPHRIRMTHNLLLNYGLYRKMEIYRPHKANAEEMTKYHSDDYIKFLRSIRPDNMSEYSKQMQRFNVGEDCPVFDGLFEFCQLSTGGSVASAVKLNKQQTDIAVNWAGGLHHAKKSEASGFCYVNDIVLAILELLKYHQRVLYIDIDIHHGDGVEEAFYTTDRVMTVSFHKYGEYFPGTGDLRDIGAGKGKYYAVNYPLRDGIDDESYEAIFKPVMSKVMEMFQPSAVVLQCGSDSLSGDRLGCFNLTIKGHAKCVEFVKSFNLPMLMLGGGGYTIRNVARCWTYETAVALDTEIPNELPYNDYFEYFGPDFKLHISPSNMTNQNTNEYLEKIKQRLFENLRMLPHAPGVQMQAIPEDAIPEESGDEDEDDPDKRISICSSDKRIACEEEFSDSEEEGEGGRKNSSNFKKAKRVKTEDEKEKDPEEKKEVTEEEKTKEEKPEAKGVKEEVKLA

By AUC is commonly meant concentration integrated over time. One may read the Cmax as the peak of the concentration-time curve. One may read the IC50 as the concentration needed to halve the response being measured. Regarding `Nc1ccc(-c2ccccc2)cc1NC(=O)c1ccc2c(c1)CC(=O)N2CCN1CCOCC1` [Compound 013], the IV clearance in series [1] (IV 1 mg/kg) lay in the range of 1.67 to 16.7 mL/min/kg. The exposure (AUC) in series [1] (IV 1 mg/kg, read-out: IV AUC) is 2700 to 2800 ng·h/mL; in series [1] (setting [2]), 11800 ng·h/mL. Further, the half-life in series [1] (IV 1 mg/kg, read-out: IV t1/2) is 1 to 5 h; in series [1] (setting [3]), 1 to 5 h. The compound also gave a Cmax in series [1] (PO 5 mg/kg oral gavage) of 1900 to 1950 ng/mL. Further, in series [1], the bioavailability is 80 to 90%. Further, the figures for the IC50 against HDAC1, on HDAC3 and against HDAC2 were 25 to 35 nM, 1040 to 1050 nM and 70 to 80 nM, respectively.

For `CN1C(=O)Cc2cc(C(=O)Nc3cc(-c4ccccc4)ccc3N)ccc21` [Compound 012], the IV clearance in series [1] (IV 1 mg/kg) lay within 0.167 to 8.33 mL/min/kg. Also, the AUC in series [1] (IV 1 mg/kg, read-out: IV AUC) lay within 29800 to 30000 ng·h/mL; in series [1] (setting [2]), 9450 to 9550 ng·h/mL. Also, the half-life in series [1] (IV 1 mg/kg, read-out: IV t1/2) lay within 5 to 10 h; in series [1] (setting [3]), 15 to 20 h. The compound also yielded a Cmax in series [1] (PO 5 mg/kg oral gavage) of 8200 to 8250 ng/mL. The bioavailability in series [1] lay within 60 to 70%. The IC50 against HDAC1 is 25 to 35 nM; against HDAC3, 875 to 885 nM; against HDAC2 it was 20 to 30 nM.

`Nc1ccc(-c2cccs2)cc1NC(=O)c1ccc2c(c1)CC(=O)N2` [Compound 004] yielded an IV clearance in series [1] (IV 1 mg/kg) of 0.167 to 8.33 mL/min/kg. The AUC in series [1] (IV 1 mg/kg, read-out: IV AUC) is 10600 to 10800 ng·h/mL; in series [1] (setting [2]), 61200 to 61400 ng·h/mL. Also, the half-life in series [1] (IV 1 mg/kg, read-out: IV t1/2) lay within 15 to 20 h; in series [1] (setting [3]), 10 to 15 h. Further, the highest concentration (Cmax) in series [1] (PO 5 mg/kg oral gavage) was 3500 to 3550 ng/mL. Besides, in series [1], the bioavailability was in the range of 110 to 115%. Further, the results for the IC50 against HDAC1, against HDAC3 and on HDAC2 were 5 to 10 nM, 530 to 540 nM and 25 to 30 nM, respectively.

In the case of `CN(C)CCN(C)c1ccc2cc(C(=O)Nc3cc(-c4cccs4)ccc3N)cnc2c1` [Compound 031], the AUC in series [1] (IV 1 mg/kg, read-out: IV AUC) is 1 to 5 ng·h/mL. The CL renal in series [1] (IV 1 mg/kg, read-out: IV Clr.) was less than 3.33 mL/min/kg. The half-life in series [1] (IV 1 mg/kg, read-out: IV t1/2) was in the range of 0.5 to 1 h. Besides, the IC50 against HDAC1 was less than 5 nM; against HDAC3, 240 to 250 nM; at HDAC2, 15 to 25 nM.

Regarding `Nc1ccc(-c2cccs2)cc1NC(=O)c1ccc2c(c1)CC(=O)N2CC1CC1` [Compound 011], the IV clearance in series [1] (IV 1 mg/kg) was in the range of 1.67 to 16.7 mL/min/kg. The exposure (AUC) in series [1] (IV 1 mg/kg, read-out: IV AUC) lay within 2000 to 2100 ng·h/mL; in series [1] (setting [2]), 8000 to 8100 ng·h/mL. For the same compound, the half-life in series [1] (IV 1 mg/kg, read-out: IV t1/2) lay in the range of 5 to 10 h; in series [1] (setting [3]), 5 to 10 h. The compound also displayed a Cmax in series [1] (PO 5 mg/kg oral gavage) of 700 to 750 ng/mL. Further, the bioavailability in series [1] lay in the range of 80 to 90%. In addition, the 50% inhibitory concentration (IC50) was 10 to 15 nM against HDAC1, 490 to 500 nM against HDAC3 and 35 to 40 nM against HDAC2.
